In the assay the target is recombinant DYRK1A kinase (Homo sapiens (Human), UniProt Q13627). The experiment in a line: DYRK1A kinase assay (Ser/Thr 18 peptide Z-lyte FRET). The following applies: DYRK1A kinase activity, Z-lyte Ser/Thr 18 peptide, 15 μM ATP; method text calls the value IC50; read-out: EC50 (the source's name). Format: biochemical. Put shortly:
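Compounds were tested as 11-point, threefold dilution series starting at 10 μM against recombinant enzyme in a 1 h room-temperature reaction with 15 μM ATP and 4 μM peptide substrate. Phosphorylation is read by protease-coupled FRET, and IC50 values come from curve fitting.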

With `COc1nc(NC2CCC3(CC2)CN(C(C)=O)C3)nn2ccc(-c3ccc4nnn(CC(F)F)c4c3)c12` [Compound 799, 1-(7-((5-(1-(2,2-Difluoroethyl)-1H-benzo[d][1,2,3]triazol-6-yl)-4-methoxypyrrolo[2,1-f][1,2,4]triazin-2-yl)amino)-2-azaspiro[3.5]nonan-2-yl)ethan-1-one], the IC50 was 1.7 nM. On to `COc1nc(NC2CCC(F)(F)CC2)nn2ccc(-c3cnc4nccn4c3)c12` [Compound 254, N-(4,4-Difluorocyclohexyl)-5-(imidazo[1,2-a]pyrimidin-6-yl)-4-methoxypyrrolo[2,1-f][1,2,4]triazin-2-amine], for which the IC50 came out at 1.8 nM. As for `COc1nc(N[C@H]2C[C@@](C)(NC(C)=O)C2)nn2ccc(-c3cnc4nccn4c3)c12` [Compound 934, N-((1s,3s)-3-((5-(Imidazo[1,2-a]pyrimidin-6-yl)-4-methoxypyrrolo[2,1-f][1,2,4]triazin-2-yl)amino)-1-methylcyclobutyl)acetamide], the figure is 1.6 nM. As to `C[C@]1(O)CC[C@H](Nc2nc(OC3COC3)c3c(-c4ccc5ncnn5c4)ccn3n2)CC1` [Compound 621, (1r,4r)-4-((5-([1,2,4]Triazolo[1,5-a]pyridin-6-yl)-4-(oxetan-3-yloxy)pyrrolo[2,1-f][1,2,4]triazin-2-yl)amino)-1-methylcyclohexan-1-ol], the IC50 came to 35.4 nM.

Consider `CC[C@]1(O)CC[C@@H](Nc2nc(OC)c3c(-c4ccc5nnn(CC(F)F)c5c4)ccn3n2)CC1` [Compound 726, (1s,4s)-4-((5-(1-(2,2-Difluoroethyl)-1H-benzo[d][1,2,3]triazol-6-yl)-4-methoxypyrrolo[2,1-f][1,2,4]triazin-2-yl)amino)-1-ethylcyclohexan-1-ol], for which the IC50 came to 1.8 nM. Then `COc1nc(N[C@H]2C[C@@](C)(N(C)C)C2)nn2ccc(-c3ccc4nnn(C)c4c3)c12` [Compound 204, cis-N^3-(4-methoxy-5-(1-methyl-1H-benzo[d][1,2,3]triazol-6-yl)pyrrolo[2,1-f][1,2,4]triazin-2-yl)-N^1,N^1,1-trimethylcyclobutane-1,3-diamine], with 3.5 nM; and `COc1nc(N[C@H]2C[C@](C)(NC(=O)OC(C)(C)C)C2)nn2ccc(-c3ccn4nccc4c3)c12` [Compound 98, tert-Butyl (trans-3-((4-methoxy-5-(pyrazolo[1,5-a]pyridin-5-yl)pyrrolo[2,1-f][1,2,4]triazin-2-yl)amino)-1-methylcyclobutyl)carbamate], with 25.6 nM; and `COc1nc(NC2CCC3(CC2)COC3)nn2ccc(-c3ccc4ncnn4c3)c12` [Compound 198, 5-([1,2,4]Triazolo[1,5-a]pyridin-6-yl)-4-methoxy-N-(2-oxaspiro[3.5]nonan-7-yl)pyrrolo[2,1-f][1,2,4]triazin-2-amine], with 4.5 nM. In the case of `COc1nc(N[C@H]2C[C@@](C)(N)C2)nn2ccc(-c3ccc4nnn(C)c4c3)c12` [Compound 202, cis-N^1-(4-Methoxy-5-(1-methyl-1H-benzo[d][1,2,3]triazol-6-yl)pyrrolo[2,1-f][1,2,4]triazin-2-yl)-3-methylcyclobutane-1,3-diamine], the IC50 was 10.9 nM. Take `COc1nc(N[C@@H]2CN(C)C[C@@H]2F)nn2ccc(-c3cnc4nccn4c3)c12` [Compound 262, N-((3R,4S)-4-Fluoro-1-methylpyrrolidin-3-yl)-5-(imidazo[1,2-a]pyrimidin-6-yl)-4-methoxypyrrolo[2,1-f][1,2,4]triazin-2-amine]: the IC50 stood at 3.2 nM. With `COc1nc(N[C@H]2C[C@](C)(O)C2)nn2ccc(-c3ccc4nc(C)n(CCO)c4c3)c12` [Compound 170, trans-3-((5-(1-(2-Hydroxyethyl)-2-methyl-1H-benzo[d]imidazol-6-yl)-4-methoxypyrrolo[2,1-f][1,2,4]triazin-2-yl)amino)-1-methylcyclobutan-1-ol], the IC50 was 8.6 nM.

For the origin of these results see patent publication US20240002391A1, “4-ALKOXYPYRROLO[2,1-F][1,2,4]TRIAZINES AND PREPARATION AND USES THEREOF” (BioSplice Therapeutics, Inc., priority 2022, published 2024).
